Experimental data taken from patent US7888040B2, “Detection of methamphetamine group drugs” (priority 2004, dated 2011).

Assays:
[1] = system: monoclonal anti-methamphetamine antibody; assay: Competitive inhibition ELISA (CELIA) on BSA-pseudoephedrine coated wells; type: binding, mouse; details: for Detection by the competitive ELISA (in words): summary of Table 1
Procedure: The conjugate was evaluated using ELISA. 96-well microtitre plates (Costar) were coated with BSA-pseudoephedrine (5 :g/ml in 0.05 M sodium carbonate/bicarbonate buffer, pH 9.6, 100 :l/well) overnight at room temperature. […] Two fold dilutions of monoclonal anti-methamphetamine antibody (East coast Biological, USA) in wash buffer containing 10 mg/ml BSA (assay buffer) were added to the wells (100 :l/well) and the plate incubated at room temperature for 30 minutes. The wells were washed 3 times with wash buffer and horseradish peroxidase-labelled goat anti-mouse IgG antibody (product number A-4416, Sigma Co., Poole, England) was added to the wells (1/2000 dilution in assay buffer, 100 :l/well) and incubation continued for a further 30 minutes. […] After 30 minutes incubation, colour development was stopped by the addition of 1 M sulphuric acid (100 :l/well). Colour intensity was measured at 450 nm.
Competitive ELISA was then set up to evaluate the cross-reactivity of various drugs with methamphetamine. […] The designer ecstasy drugs MDMA and MBDB were well detected by this assay.

[2] = system: gold-labelled mouse anti-methamphetamine antibody; assay: Lateral flow immunochromatography test for methamphetamine/ecstasy in spiked oral fluid; details: for Lateral flow test result (in words): Table 2, at the concentrations tested; for Lateral flow test result: cut off set at ≧15 ng/ml (+)-methamphetamine
[3] = compound at 15 ng/ml in spiked saliva, Cozart Rapiscan reader
[4] = compound at 10,000 ng/ml, read off (+)-methamphetamine or ecstasy standard curve
[5] = compound at 10,000 ng/ml in spiked saliva

| Molecule | % Cross-reactivity ([1]; compound at 10,000 ng/ml) [%] | Concentration determined by ELISA [1, 4] [ng/mL] | Lateral flow test result [2, 5] | also measured |
| --- | --- | --- | --- | --- |
| CCC(Cc1ccc2c(c1)OCO2)NC (racemic) [MBDB, (+/−)-N-methyl-1-(3,4-methylenedioxyphenyl)-2-butanamine] |  |  |  | % Cross-reactivity ([1]; compound at 25 ng/ml): 75.04%; Concentration determined by ELISA ([1]; compound at 25 ng/ml): 18.76 ng/mL; % Cross-reactivity ([1]; compound at 100 ng/ml): 66.43%; Concentration determined by ELISA ([1]; compound at 100 ng/ml): 66.43 ng/mL; % Cross-reactivity ([1]; compound at 500 ng/ml): 87.78%; Concentration determined by ELISA ([1]; compound at 500 ng/ml): 438.88 ng/mL; Detection by the competitive ELISA (in words) [1]: well detected; Lateral flow test result (in words) [2]: picked up; Lateral flow test result [2, 3]: positive |
| CC(N)Cc1ccccc1 (single isomer, unassigned; (+)) [(+)-amphetamine] | 0.379 | 37.97 | negative | % Cross-reactivity ([1]; compound at 10,000 ng/ml, listed as amphetamine): < 0.4% |
| CN[C@H](C)[C@@H](O)c1ccccc1 [(+)-ephedrine] | 0.08 | 8.37 | negative |  |
| CN[C@@H](C)[C@H](O)c1ccccc1 [(−)-ephedrine] | 0.05 | 5.05 | negative |  |
| CN(C)CCC(c1ccc(Cl)cc1)c1ccccn1 (stereo not drawn) [Chlorpheniramine] |  |  | negative |  |
| CCNC(C)Cc1cccc(C(F)(F)F)c1 (stereo not drawn) [Fenfluramine] |  |  | negative |  |
| CNC1(c2ccccc2Cl)CCCCC1=O (stereo not drawn) [Ketamine] |  |  | negative |  |
| CC(N)Cc1ccc2c(c1)OCO2 (stereo not drawn) [MDA, 3,4-methylenedioxyamphetamine] | 0.219 | 21.94 | negative |  |
| CNC(C)Cc1ccc2c(c1)OCO2 (stereo not drawn) [MDMA (Ecstasy), 3,4-methylenedioxymethamphetamine] |  |  |  | % Cross-reactivity ([1]; compound at 15 ng/ml): 55.0%; Concentration determined by ELISA ([1]; compound at 15 ng/ml): 8.26 ng/mL; % Cross-reactivity ([1]; compound at 50 ng/ml): 48.1%; Concentration determined by ELISA ([1]; compound at 50 ng/ml): 24.09 ng/mL; % Cross-reactivity ([1]; compound at 100 ng/ml): 53.19%; Concentration determined by ELISA ([1]; compound at 100 ng/ml): 53.19 ng/mL; Detection by the competitive ELISA (in words) [1]: well detected; Lateral flow test result (in words) [2]: picked up; Lateral flow test result ([2]; compound at 30 ng/ml in spiked saliva): positive |
| CN(C)CCC(c1ccccc1)c1ccccn1 (stereo not drawn) [Pheniramine] |  |  | negative |  |
| NCCc1ccccc1 [beta-phenylethylamine] | 0.25 | 25.6 | negative |  |
| CC(C)(N)Cc1ccccc1 [phentermine] |  |  |  | % Cross-reactivity ([1]; compound at 50,000 ng/ml): 0.009%; Concentration determined by ELISA ([1]; compound at 50,000 ng/ml): 4.67 ng/mL |
| CC(N)C(O)c1ccccc1 (stereo not drawn) [phenylpropanolamine] | 0.06 | 5.8 | negative |  |
| NCCc1ccc(O)cc1 [tyramine, 4-hydroxy-phenethylamine] | 0.03 | 3.72 | negative |  |
| (+)-methamphetamine [(+)- methylamphetamine] |  |  |  | Lateral flow test result (in words) [2]: picked up; Lateral flow test result [2, 3]: positive |
| (+)-pseudoephedrine | 0.063 | 6.3 | negative |  |
| (−)-pseudoephedrine | 0.048 | 4.84 | negative |  |
